Molecules are shown by their SMILES.

Data set [1] is described as follows: Retention time of the compound by RP-HPLC analysis. Format: physicochemical.
The target in data set [2] is T1, Vasopressin V1a receptor (Homo sapiens, UniProt P37288). Description: Binding affinity to V1aR (unknown origin) expressed in HEK293 cells by TR-FRET assay. It counts as cell-based. In general terms: In TR-FRET formats the signal depends on donor and acceptor labels being close together.
Data set [3] deals with T2, Oxytocin receptor (Homo sapiens, UniProt P30559).
T2 sequence (P30559 whole entry): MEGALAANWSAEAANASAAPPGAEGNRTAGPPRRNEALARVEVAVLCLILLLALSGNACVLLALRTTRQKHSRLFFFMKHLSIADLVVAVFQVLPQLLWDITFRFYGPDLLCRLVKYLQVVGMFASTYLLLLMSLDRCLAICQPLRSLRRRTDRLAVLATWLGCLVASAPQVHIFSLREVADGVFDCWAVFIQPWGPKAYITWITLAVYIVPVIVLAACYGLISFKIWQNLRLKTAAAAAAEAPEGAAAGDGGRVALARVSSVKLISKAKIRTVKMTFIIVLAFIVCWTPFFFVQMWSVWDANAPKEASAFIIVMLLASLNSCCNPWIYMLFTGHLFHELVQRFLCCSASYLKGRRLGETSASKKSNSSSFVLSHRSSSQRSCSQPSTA
Description: Binding affinity to SNAP-tagged oxytocin receptor (unknown origin) expressed in HEK293 cells by TR-FRET assay. Format: cell-based.

Another data set is filed under the species Homo sapiens. The data set can be described thus: Selectivity ratio of Kd for V1aR (unknown origin) to Kd for SNAP-tagged oxytocin receptor (unknown origin).
Another data set concerns the target T3, Vasopressin V1b receptor (Homo sapiens, UniProt P47901).
T3 sequence (P47901 whole entry): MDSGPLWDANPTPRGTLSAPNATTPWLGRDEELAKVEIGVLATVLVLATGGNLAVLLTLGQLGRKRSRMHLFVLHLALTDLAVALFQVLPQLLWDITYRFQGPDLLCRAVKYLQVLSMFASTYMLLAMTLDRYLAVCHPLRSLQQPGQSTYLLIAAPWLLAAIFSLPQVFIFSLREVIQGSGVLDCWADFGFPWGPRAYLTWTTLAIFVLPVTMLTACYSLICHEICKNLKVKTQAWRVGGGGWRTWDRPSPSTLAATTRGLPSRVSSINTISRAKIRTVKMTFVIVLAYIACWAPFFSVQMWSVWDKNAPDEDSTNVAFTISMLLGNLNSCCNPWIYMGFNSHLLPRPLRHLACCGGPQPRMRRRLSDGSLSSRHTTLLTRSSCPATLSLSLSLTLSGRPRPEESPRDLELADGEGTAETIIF
Description: Binding affinity to V1bR (unknown origin) expressed in HEK293 cells by TR-FRET assay. Format: cell-based.

Data set [4] deals with T4, Vasopressin V2 receptor (Homo sapiens, UniProt P30518). Description: Binding affinity to V2R (unknown origin) expressed in HEK293 cells by TR-FRET assay. It counts as cell-based.
T4 sequence (P30518 whole entry): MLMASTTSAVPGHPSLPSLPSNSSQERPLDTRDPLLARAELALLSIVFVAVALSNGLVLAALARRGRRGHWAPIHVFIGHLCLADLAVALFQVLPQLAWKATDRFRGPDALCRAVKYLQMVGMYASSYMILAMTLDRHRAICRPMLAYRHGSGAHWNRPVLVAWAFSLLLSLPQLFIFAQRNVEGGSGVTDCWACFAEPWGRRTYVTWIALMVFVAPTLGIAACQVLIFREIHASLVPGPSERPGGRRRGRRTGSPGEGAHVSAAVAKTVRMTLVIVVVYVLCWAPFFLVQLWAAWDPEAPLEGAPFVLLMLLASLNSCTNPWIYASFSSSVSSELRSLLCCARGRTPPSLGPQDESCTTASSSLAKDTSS
Data set [5] has as its target T2, Oxytocin receptor. Description: Binding affinity to SNAP-tagged oxytocin receptor (unknown origin) expressed in HEK293 cells assessed as dissociation constant after 5 to 120 mins by TR-FRET assay. It counts as cell-based.
Data set [6] deals with T2, Oxytocin receptor. The data set can be described thus: Binding affinity to SNAP-tagged oxytocin receptor (unknown origin) expressed in HEK293 cells assessed as association constant after 5 to 120 mins by TR-FRET assay. Format: cell-based.
The target in data set [7] is T2, Oxytocin receptor. The data set can be described thus: Competitive binding to SNAP-tagged oxytocin receptor (unknown origin) expressed in HEK293 cells incubated for 1 hr at RT followed by 4 hrs at 4 degC by TR-FRET assay in presence of 5-(3-(22-(3-carboxy-4-(3-oxo-3H-xanthen-9-yl)phenyl)-15,22-dioxo-2,5,8,11-tetraoxa-14,21-diazadocosyl)-5-(3-(2-chloro-4-fluorophenoxy)azetidin-1-yl)-4H-1,2,4-triazol-4-yl)-2-methoxypyridinium 2,2,2-trifluoroacetate. Format: cell-based.

Data set [8] has as its target T1, Vasopressin V1a receptor. The data set can be described thus: Binding affinity to V1aR (unknown origin).
Data set [9] addresses T2, Oxytocin receptor. Description: Binding affinity to OTR (unknown origin).
In data set [10] the target is T2, Oxytocin receptor. The data set can be described thus: Competitive binding to SNAP-tagged oxytocin receptor (unknown origin) expressed in HEK293 cells incubated for 1 hr at RT followed by 4 hrs at 4 degC by TR-FRET assay in presence of 2-(5-(3-(1-(5-(3-(2-chloro-4-fluorophenoxy)azetidin-1-yl)-4-(6-methoxypyridinium-3-yl)-4H-1,2,4-triazol-3-yl)-15-oxo-2,5,8,11-tetraoxa-14-azaoctadecan-18-yl)-1-ethyl-3-methyl-5-sulfoindolin-2-ylidene)penta-1,3-dienyl)-1 …. Format: cell-based.

Data set [11] concerns the target T4, Vasopressin V2 receptor. The data set can be described thus: Binding affinity to V2R (unknown origin).

T1 sequence (P37288 whole entry): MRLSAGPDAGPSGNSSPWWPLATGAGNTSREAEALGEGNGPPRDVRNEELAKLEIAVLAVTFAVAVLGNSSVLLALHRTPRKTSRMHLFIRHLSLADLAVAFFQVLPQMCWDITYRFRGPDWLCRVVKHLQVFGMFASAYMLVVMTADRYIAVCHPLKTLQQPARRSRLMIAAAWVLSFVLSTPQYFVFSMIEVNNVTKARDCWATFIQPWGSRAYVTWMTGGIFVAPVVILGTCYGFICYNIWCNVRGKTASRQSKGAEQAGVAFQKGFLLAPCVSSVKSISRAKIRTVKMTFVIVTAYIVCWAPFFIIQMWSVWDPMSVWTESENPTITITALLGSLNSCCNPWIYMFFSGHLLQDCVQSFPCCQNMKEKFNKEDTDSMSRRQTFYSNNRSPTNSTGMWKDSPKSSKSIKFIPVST

In data set [1], `O=C(CCCCCNC(=O)c1ccc2c(c1)C(=O)OC21c2ccc(O)cc2Oc2cc(O)ccc21)ON1C(=O)CCC1=O` registered a Retention_time of 4 min.
One may read the Kd as the constant that tells how readily two partners part at equilibrium. High values mean weaker binding, low ones tighter binding. `O=C(CCCCCNC(=O)c1ccc(-c2c3ccc(=O)cc-3oc3cc(O)ccc23)c(C(=O)O)c1)NCCNC(=O)CCc1ccc(S(=O)(=O)N(CC(=O)N/N=C2\C(=O)Nc3ccccc32)c2ccc(Cl)cc2)cc1`: the Kd is 61 nM on Vasopressin V1a receptor [2], 1.73 nM at Oxytocin receptor [3], more than 1000 nM on Vasopressin V1b receptor and 135 nM at Vasopressin V2 receptor [4]. The Ratio in the data set filed under Homo sapiens came out at 35. The molecule also showed a Retention_time in data set [1] of 4.68 min.
As to `CCN1\C(=C/C=C/C=C/C2=[N+](CC)c3cc(S(=O)(=O)[O-])ccc3C2(C)C)C(C)(CCCC(=O)NCCOCCOCCOCCOCc2nnc(N3CC(Oc4ccc(F)cc4Cl)C3)n2-c2ccc(OC)nc2)c2cc(S(=O)(=O)O)ccc21.O=C(O)C(F)(F)F` (stereo not drawn), the equilibrium dissociation constant (Kd) at Vasopressin V1a receptor [2] is more than 1000 nM; at Oxytocin receptor [3], 1.59 nM; on Vasopressin V1b receptor, more than 1000 nM; at Vasopressin V2 receptor [4], 509 nM. For the same molecule, the koff at Oxytocin receptor [5] is 10.9 ×10⁻³ /min. Besides, the kon on Oxytocin receptor [6] was found to be 4.03 ×10⁶ /M/min. In [1], this molecule displayed a Retention_time of 3.94 min.
In the case of `CCN1\C(=C/C=C/C=C/C2=[N+](CC)c3cc(S(=O)(=O)[O-])ccc3C2(C)C)C(C)(CCCC(=O)NCCOCCOCCOCCOCCOCCOCCOCCOCc2nnc(N3CC(Oc4ccc(F)cc4Cl)C3)n2-c2ccc(OC)nc2)c2cc(S(=O)(=O)O)ccc21.O=C(O)C(F)(F)F` (stereo not drawn), the Kd on Vasopressin V1a receptor [2] is more than 1000 nM; on Oxytocin receptor [3], 1.86 nM; on Vasopressin V1b receptor, more than 1000 nM; on Vasopressin V2 receptor [4], 353 nM. In [1], this molecule showed a Retention_time of 3.97 min.
As to `COc1ccc(-n2c(COCCOCCOCCOCCOCCOCCOCCOCCNC(=O)CCCCCNC(=O)c3ccc(-c4c5ccc(=O)cc-5oc5cc(O)ccc45)c(C(=O)O)c3)nnc2N2CC(Oc3ccc(F)cc3Cl)C2)cn1.O=C(O)C(F)(F)F`, the Kd at Vasopressin V1a receptor [2] was more than 1000 nM; on Oxytocin receptor [3] it was 2.05 nM; on Vasopressin V1b receptor, more than 1000 nM; on Vasopressin V2 receptor [4] it was more than 1000 nM. The molecule also came in with a Retention_time in data set [1] of 4.39 min.
For the molecule `COc1ccc(-n2c(COCCOCCOCCOCCNC(=O)CCCCCNC(=O)c3ccc(-c4c5ccc(=O)cc-5oc5cc(O)ccc45)c(C(=O)O)c3)nnc2N2CC(Oc3ccc(F)cc3Cl)C2)cn1.O=C(O)C(F)(F)F`, the equilibrium dissociation constant (Kd) at Vasopressin V1a receptor [2] is more than 1000 nM; at Oxytocin receptor [3], 1.59 nM; on Vasopressin V1b receptor it was more than 1000 nM; at Vasopressin V2 receptor [4], more than 1000 nM. Further, the koff on Oxytocin receptor [5] stood at 18.9 ×10⁻³ /min. In addition, the kon on Oxytocin receptor [6] was 3.57 ×10⁶ /M/min. Besides, in data set [1], the Retention_time is recorded as 4.38 min.
Consider `CCN1\C(=C/C=C/C=C/C2=[N+](CC)c3cc(S(=O)(=O)[O-])ccc3C2(C)C)C(C)(CCCC(=O)NCCNC(=O)CCc2ccc(S(=O)(=O)N(CC(=O)N/N=C3\C(=O)Nc4ccccc43)c3ccc(Cl)cc3)cc2)c2cc(S(=O)(=O)O)ccc21` (stereo not drawn), for which the dissociation constant Kd on Vasopressin V1a receptor [2] was 19.7 nM; on Oxytocin receptor [3], 1.37 nM; at Vasopressin V1b receptor, more than 1000 nM; at Vasopressin V2 receptor [4], 30.5 nM. Further, in the data set listed under Homo sapiens, the Ratio worked out at 14. Besides, in data set [1], the Retention_time was 3.96 min.
In the case of `CCN1\C(=C/C=C/C=C/C2=[N+](CC)c3cc(S(=O)(=O)[O-])ccc3C2(C)C)C(C)(CCCC(=O)ON2C(=O)CCC2=O)c2cc(S(=O)(=O)O)ccc21` (stereo not drawn), the Retention_time in data set [1] is 3.17 min.
Usually Ki stands for the dissociation constant of the complex between target and ligand, obtained from inhibition or displacement. Turning to `Cc1ccn(Cc2ccc(C(=O)N3Cc4cnn(C)c4Nc4ccccc43)cc2C)n1`, the Ki at Oxytocin receptor [7] was found to be 6.22 nM; on Vasopressin V1a receptor [8], 18 nM; on Oxytocin receptor [9] it was 27.8 nM; on Oxytocin receptor [10] it was 6.6 nM; on Vasopressin V2 receptor [11] it was 913 nM.
